Assay results: patent US20190070165A1, “N-HYDROXYISOQUINOLINEDIONE INHIBITORS OF HBV REPLICATION” (Saint Louis University, priority 2016, published 2019)
Entries after “also recorded” stand apart in the source; their conditions may differ.

Experiments:
[1] = system: HBV replication; assay: HBV replication inhibition assay in HepDES19 cells (strand-preferential q-PCR); type: cell-based, Hepatitis B virus
[2] = target: T1, HBV RNaseH (Hepatitis B virus genotype D subtype ayw, UniProt P03156); assay: Detection of capsid-associated RNA:DNA heteroduplexes by Southern analysis; type: cell-based; set-up: expressed in transfected cells; host or cells: HepDES19 (HepG2 with a stably transfected HBV genotype D genome); conditions: HepDES19 cells, seven days; #89 at 4×EC50 (10.4 μM), #138 at 30 μM
Protocol: RNA:DNA heteroduplexes migrate as double-stranded products, but degradation of the RNA strand with exogenous RNase causes the DNAs to migrate as single-stranded species. To test for accumulation of RNA:DNA heteroduplexes, HepDES19 cells replicating HBV were treated with 4×EC50 (10.4 μM) of compound #89 and 30 μM compound #138 (negative control). HBV cores were harvested after seven days of compound treatment. Capsid-associated nucleic acids were purified and split into two pools; one pool was treated with RNaseA and the other pool was mock treated.
HepDES19 cells were plated in 100 mm dishes without tetracycline and incubated for 72 hours in the absence of tetracycline before addition of compound #89 at 4×EC50 (10.4 μM) and the negative control compound #138 at 30 μM; compound-containing media was replaced every three days. HBV nucleic acids were purified seven days after compound addition. HBV core particles were isolated by sedimentation through a sucrose cushion as described (Tavis et al., 1998). Cores were treated overnight with proteinase K (0.5 mg/mL) and 1.5% SDS at 37° C. Nucleic acids were purified by phenol-chloroform extraction and ethanol precipitation. The nucleic acids were split into two pools. One pool was treated with RNaseA (1.5 μg/μL) at 37° C. for 30 minutes and the other was mock-treated. […]
Target sequence in this assay (P03156 whole entry): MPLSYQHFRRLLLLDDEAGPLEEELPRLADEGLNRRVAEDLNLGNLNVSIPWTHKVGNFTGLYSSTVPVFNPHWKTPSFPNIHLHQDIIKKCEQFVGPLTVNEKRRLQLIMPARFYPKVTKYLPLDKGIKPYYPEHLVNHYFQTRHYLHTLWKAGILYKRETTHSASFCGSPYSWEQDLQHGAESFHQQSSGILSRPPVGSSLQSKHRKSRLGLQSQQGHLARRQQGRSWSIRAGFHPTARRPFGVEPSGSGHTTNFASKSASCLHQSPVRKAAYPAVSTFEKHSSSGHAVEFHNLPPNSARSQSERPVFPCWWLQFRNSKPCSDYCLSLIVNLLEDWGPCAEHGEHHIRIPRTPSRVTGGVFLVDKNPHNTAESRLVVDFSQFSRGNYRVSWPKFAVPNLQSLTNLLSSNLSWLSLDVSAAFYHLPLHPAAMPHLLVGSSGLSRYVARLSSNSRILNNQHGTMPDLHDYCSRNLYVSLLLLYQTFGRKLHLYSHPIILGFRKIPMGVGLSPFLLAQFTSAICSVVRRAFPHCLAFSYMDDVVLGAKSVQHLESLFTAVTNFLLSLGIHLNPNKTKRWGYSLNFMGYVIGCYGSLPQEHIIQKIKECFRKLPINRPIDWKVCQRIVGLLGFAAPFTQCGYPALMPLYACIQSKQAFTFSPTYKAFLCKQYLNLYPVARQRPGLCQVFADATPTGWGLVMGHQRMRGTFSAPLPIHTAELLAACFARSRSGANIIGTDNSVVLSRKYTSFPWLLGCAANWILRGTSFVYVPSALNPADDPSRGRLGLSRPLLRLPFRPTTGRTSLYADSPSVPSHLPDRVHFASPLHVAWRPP

[3] = target: T1, HBV RNaseH; assay: Molecular beacon RNaseH assay
Target sequence in this assay (P03156 671-832): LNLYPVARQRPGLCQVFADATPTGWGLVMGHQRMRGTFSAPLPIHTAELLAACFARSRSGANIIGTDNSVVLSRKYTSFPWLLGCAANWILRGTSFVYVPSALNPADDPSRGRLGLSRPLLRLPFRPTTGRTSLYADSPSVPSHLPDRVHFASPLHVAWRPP

[4] = target: T2, HBV polymerase (Hepatitis B virus genotype D subtype ayw, UniProt P03156); assay: Endogenous polymerase reaction (EPR) in isolated HBV capsids; type: biochemical; conditions: inhibitors at 4× EC50; #138 and #211 at 30 μM; ddTTP 5.7 μM
T2 construct: expressed in transfected cells; host or cells: HepDES19 (HepG2 with a stably transfected HBV genotype D genome)
Excerpt: Anti-RNaseH activity is implied from their preferential suppression of the plus-polarity DNA strand (FIG. 4), but strand-preferential inhibition could also result from inhibiting the polymerase also. This is because positive-polarity DNA synthesis can be suppressed both directly by inhibiting the RNaseH enzyme and indirectly by reducing the amount of negative-polarity DNA strand that templates the positive-polarity strand, whereas minus-polarity DNA synthesis can only be suppressed by chain termination. To determine if the efficacy of these compounds was due to inhibition of the HBV polymerase, capsids isolated from HepDES19 cells were tested in the endogenous polymerase reaction (EPR) to measure DNA chain elongation by the HBV polymerase along the HBV nucleic acids within the capsids. Isolated HBV capsids were supplied with dATP, dTTP, dGTP, and [α^32P]dCTP in the presence of inhibitors at 4× their EC50 values; negative control compounds #138 and #211 were tested at 30 μM. 1% DMSO was used as a vehicle control, and ddTTP (5.7 μM) was the positive control polymerase inhibitor. Samples were incubated at 37° C. for 7 hours to permit DNA chain elongation by the encapsidated HBV polymerase. Nucleic acids were purified, resolved on a 0.8% agarose gel and detected by autoradiography. DNAs from HBV capsids treated with the compounds incorporated ^32P similarly to DMSO control (FIG. 5).
HBV cores were harvested from HepDES19 cells grown in the absence of tetracycline for 20 days using polyethylene glycol 8000 precipitation (Guo et al., 2003). Cells were rinsed in PBS and lysed in 1 mL core lysis buffer with 2 μL of protease inhibitor cocktail (Sigma) at room temperature for 10 minutes. Cell lysates were collected and 10 mM CaCl2) was added. The lysate was centrifuged for 5 minutes at 21,000 g, the supernatant was incubated with 150 U of micrococcal nuclease at 37° C. for 60 minutes, and then 27 mM EDTA was added to stop the reaction. 333 μL of 26% PEG8000 was added to precipitate core particles and incubated at 4° C. for 6 hours. The samples were centrifuged at 21,000 g for 20 minutes at 4° C. The supernatant was removed and the pellet was resuspended in 250 μL of 10 mM Tris buffer pH 7.5. Cores were stored at −80° C.
The endogenous polymerase reaction was done using a modified procedure from (Nguyen et al., 2007). […] These nucleic acids were dissolved in tris-EDTA buffer, resolved on a 0.8% agarose gel, transferred to a HyBondN membrane, and detected by autoradiography. Band intensities for each experiment were quantified using Image J and percent inhibition was calculated relative to the DMSO-treated reactions. Statistical significance of variation in band intensities was evaluated using a one-way ANOVA with a Dunnett post hoc analysis, with p=0.05 indicating significance.

T2 sequence (P03156 whole entry): as the sequence (P03156 whole entry) above

O=C1c2ccccc2C(=O)N1O [Compound 138]
HBV replication inhibition / activity ([1]; HepDES19 cells): does not inhibit HBV replication; also recorded: inactive
HBV replication inhibition (qualitative) ([1]; Table 3, qualitative screen at 20 μM): − (No inhibition detected at 20 μM)
accumulation of RNA:DNA heteroduplexes [2]: unaltered by exogenous RNase treatment
inhibition in the molecular beacon assay ([3]; 2.1 μg purified HBV RNaseH): had no effect on the rate of substrate degradation
Inhibition of HBV RNaseH, Molecular Beacon cleavage assay ([3]; Table 3, 0 to 500 μM): − (No inhibition detected at 500 μM)
effect on 32P incorporation in EPR [4]: None of the HBV inhibitors or the two negative control compounds (#138 and 211) significantly altered incorporation
